In BindingDB's records for doi:10.1021/jm050513m (The University of Texas At Houston, 2005):
pIC50: −log10 of the molar value. Numbered stars: 1 amine (or outer) side, 2 acyl side, 3 side chain; on linkers, the order of the positions; unused ones are H or OH. Square brackets hold non-standard residues; d marks the D form. Peptide text beside a SMILES is read from it. * marks the point of attachment. ξ: configuration not given here. pY = N[C@@H](Cc1ccc(OP(=O)(O)O)cc1)C(=O)O; X3 = O=C(CN1CCN([*:1])CC1)[*:2]; Thr(3ξ) = CC(O)[C@H](N)C(=O)O; 3Abz = Nc1cccc(C(=O)O)c1; Ac6c = NC1(C(=O)O)CCCCC1; Inp = O=C(O)C1CCNCC1; NHBn = c1ccc(CN*)cc1; GABA = NCCCC(=O)O

Target: Signal transducer and activator of transcription 3 (Mus musculus, UniProt P42227)
Test: Fluorescence Polarization Assay
Description: Fluorescence polarization (FP) binding assay is utilizing the intrinsic property of the fluorescent probe, which will have low polarization value when free in solution. On binding to a target, the polarization of the probe will increase. Reaction mixtures of full length STAT3 alpha and the probe were placed in wells of a 96-well microtiter plate. The test peptide solution was added to each well. Fluorescence polarization was then read in a Tecan Polarian plate reader. The IC50 values were obtained from nonlinear regression analysis in the one-site competition mode. Peptides were assayed three times using three separate Stat3-probe preparations. IC50 values are reported as the mean of three IC50 values +/- the standard deviation.

Signal transducer and activator of transcription 3, sequence (P42227 whole entry): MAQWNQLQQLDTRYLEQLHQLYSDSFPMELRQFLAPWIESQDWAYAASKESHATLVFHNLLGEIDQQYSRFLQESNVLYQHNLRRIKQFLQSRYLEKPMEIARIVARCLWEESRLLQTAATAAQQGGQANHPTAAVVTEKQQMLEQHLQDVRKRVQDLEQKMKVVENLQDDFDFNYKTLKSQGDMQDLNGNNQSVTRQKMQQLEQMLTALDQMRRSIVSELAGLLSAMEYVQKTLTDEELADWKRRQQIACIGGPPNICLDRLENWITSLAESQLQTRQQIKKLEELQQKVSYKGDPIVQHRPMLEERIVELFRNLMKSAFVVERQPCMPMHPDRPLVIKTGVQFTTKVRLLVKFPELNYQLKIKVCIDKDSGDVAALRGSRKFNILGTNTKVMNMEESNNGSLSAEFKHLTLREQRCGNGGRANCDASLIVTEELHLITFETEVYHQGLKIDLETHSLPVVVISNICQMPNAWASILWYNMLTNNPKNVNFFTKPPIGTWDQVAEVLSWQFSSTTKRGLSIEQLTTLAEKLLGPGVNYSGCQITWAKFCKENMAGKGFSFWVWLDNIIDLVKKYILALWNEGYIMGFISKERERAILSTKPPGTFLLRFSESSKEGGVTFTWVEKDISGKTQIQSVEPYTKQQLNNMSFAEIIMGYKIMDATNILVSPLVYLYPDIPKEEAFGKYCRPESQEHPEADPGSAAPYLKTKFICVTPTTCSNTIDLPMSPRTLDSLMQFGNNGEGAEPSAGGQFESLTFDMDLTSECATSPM

Row | pIC50 (pH 7.5, 22 °C) | pIC50 | Structure (SMILES)
1 | 4.87 |  | CC(=O)N[C@@H](Cc1ccc(OP(=O)(O)O)cc1)C(=O)N[C@@H](CC(C)C)C(=O)NC1(C(=O)N[C@@H](CCC(N)=O)C(=O)N[C@H](C(N)=O)C(C)O)CCCCC1 (stereo partly drawn) [4-[(2S)-2-{[(1S)-1-[(1-{[(1S)-3-carbamoyl-1-{[(1S,2S)-1-carbamoyl-2-hydroxypropyl]carbamoyl}propyl]carbamoyl}cyclohexyl)carbamoyl]-3-methylbutyl]carbamoyl}-2-acetamidoethyl]phenoxyphosphonic acid] (Ac-[pY]L[Ac6c]Q[Thr(3ξ)]-NH2)
2 | 4.46 |  | CC(=O)N[C@@H](Cc1ccc(OP(=O)(O)O)cc1)C(=O)N[C@@H](CC(C)C)C(=O)N1CCC(C(=O)N[C@@H](CCC(N)=O)C(=O)N[C@H](C(N)=O)C(C)O)CC1 (stereo partly drawn) [4-[(2S)-2-{[(2S)-1-(4-{[(1S)-3-carbamoyl-1-{[(1S,2S)-1-carbamoyl-2-hydroxypropyl]carbamoyl}propyl]carbamoyl}piperidin-1-yl)-4-methyl-1-oxopentan-2-yl]carbamoyl}-2-acetamidoethyl]phenoxyphosphonic acid] (Ac-[pY]L[Inp]Q[Thr(3ξ)]-NH2)
3 | 4.24 |  | CC(=O)N[C@@H](Cc1ccc(OP(=O)(O)O)cc1)C(=O)N[C@@H](CC(C)C)C(=O)N1CCN(CC(=O)N[C@@H](CCC(N)=O)C(=O)N[C@H](C(N)=O)C(C)O)CC1 (stereo partly drawn) [4-[(2S)-2-{[(2S)-1-[4-({[(1S)-3-carbamoyl-1-{[(1S,2S)-1-carbamoyl-2-hydroxypropyl]carbamoyl}propyl]carbamoyl}methyl)piperazin-1-yl]-4-methyl-1-oxopentan-2-yl]carbamoyl}-2-acetamidoethyl]phenoxyphosphonic acid] (Ac-[pY]L[X3]Q[Thr(3ξ)]-NH2)
4 |  | 5.01 | CC(=O)N[C@@H](Cc1ccc(OP(=O)(O)O)cc1)C(=O)N[C@@H](CC(C)C)C(=O)N1CCC[C@H]1C(=O)NC1CCCC(C(N)=O)C1 (stereo partly drawn) [4-[(2S)-2-{[(2S)-1-[(2S)-2-[(3-carbamoylcyclohexyl)carbamoyl]pyrrolidin-1-yl]-4-methyl-1-oxopentan-2-yl]carbamoyl}-2-acetamidoethyl]phenoxyphosphonic acid]
5 |  | 4.44 | CC(=O)N[C@@H](Cc1ccc(OP(=O)(O)O)cc1)C(=O)N[C@@H](CC(C)C)C(=O)N1CCC[C@H]1C(=O)Nc1cccc(C(N)=O)c1 [4-[(2S)-2-{[(2S)-1-[(2S)-2-[(3-carbamoylphenyl)carbamoyl]pyrrolidin-1-yl]-4-methyl-1-oxopentan-2-yl]carbamoyl}-2-acetamidoethyl]phenoxyphosphonic acid] (Ac-[pY]LP[3Abz]-NH2)
6 |  | 5.75 | CC(=O)N[C@@H](Cc1ccc(OP(=O)(O)O)cc1)C(=O)N[C@@H](CC(C)C)C(=O)N1CCC[C@H]1C(=O)NCCCC(N)=O [4-[(2S)-2-{[(2S)-1-[(2S)-2-[(3-carbamoylpropyl)carbamoyl]pyrrolidin-1-yl]-4-methyl-1-oxopentan-2-yl]carbamoyl}-2-acetamidoethyl]phenoxyphosphonic acid] (Ac-[pY]LP[GABA]-NH2)

Row | Structure (SMILES) | pIC50 (pH 7.5, 22 °C) | pIC50
7 | CC(=O)N[C@@H](Cc1ccc(OP(=O)(O)O)cc1)C(=O)N[C@@H](CC(C)C)C(=O)N1CCC[C@H]1C(=O)N[C@@H](CCC(N)=O)C(N)=O (Ac-[pY]LPQ-NH2) | 6.07 | 
8 | CC(=O)N[C@@H](Cc1ccc(OP(=O)(O)O)cc1)C(=O)N[C@@H](CC(C)C)C(=O)N1CCC[C@H]1C(=O)N[C@@H](CCC(N)=O)C(=O)NCc1ccccc1 (Ac-[pY]LPQ-NHBn) |  | 6.39
9 | CC(=O)N[C@@H](Cc1ccc(OP(=O)(O)O)cc1)C(=O)N[C@@H](CC(C)C)C(=O)N1CCC[C@@H]1C(=O)N[C@@H](CCC(N)=O)C(=O)N[C@H](C(N)=O)C(C)O (stereo partly drawn) [4-[(2S)-2-{[(2S)-1-[(2R)-2-{[(1S)-3-carbamoyl-1-{[(1S,2S)-1-carbamoyl-2-hydroxypropyl]carbamoyl}propyl]carbamoyl}pyrrolidin-1-yl]-4-methyl-1-oxopentan-2-yl]carbamoyl}-2-acetamidoethyl]phenoxyphosphonic acid] | < 4.00 | 
